Like-named read-outs stand apart in the source and are kept apart here.
Experiments:
[1] = tested on: nicotinic acetylcholine receptors; test: inhibition of specific binding of ^3 H-methylcarbamylcholine (^3 H-MCC) in rat brain tissue; settings: rat cortical receptors; for Oxo/MCC Ratio: IC50 ^3 H-Oxo / IC50 ^3 H-MCC; for IC50: ^3 H-MCC 2 nM, 0° C., 60 min
Source text: The pharmacological properties of the compounds of the invention can be illustrated by determining their capability to inhibit the specific binding of ^3 H-methylcarbamylcholine (^3 H-MCC) (Abood and Grassi, Biochem. Pharmacol., Vol. 35, pp. 4199-4202, (1986)).
^3 H-MCC labels the nicotinic receptors in the CNS. The inhibitory effect on ^3 H-MCC binding reflects the affinity for nicotinic acetylcholine receptors.
Fresh or frozen rat, brain tissue (hippocampus or cortex) was homogenized in assay buffer (50 mM Tris-HCl, pH 7.4, 120 mM NaCl, 5 mM KCl, 2 mM CaCl2, 1 mM MgCl2) and centrifuged for 10 min. at 40.000×g. Pellets were subsequently reconstituted in assay buffer and an appropriate amount of tissue sample was mixed in tubes with ^3 H-methylcarbamylcholine (NEN, NET-951; final concentration 2 nM) and test drug. The tubes were incubated at 0° C. for 60 min. Unbound ligand was separated from bound ligand by vacuum filtration through GF/B filters presoaked in 0.5 % polyethylenimine. Filters were washed three times with 5 ml wash buffer (50 mM Tris-HCl, pH 7.4) and transferred to vials. 4 ml scintillation fluid was added and the radioactivity was measured by scintillation counting. Unspecific binding was measured with 10 μM nicotine.
The IC50 values of the test compounds were determined by nonlinear regression analyses (GraphPad InPlot).
Table I illustrates the affinity of the compounds of the present invention for nicotinic and muscarinic receptors as determined by ^3 H-MCC and ^3 H-Oxo binding to rat cortical receptors. The compounds, however, show selective affinity for nicotinic receptors as compared to muscarinic receptors, i.e OXO/MCC>1.

[2] = molecular target: muscarinic acetylcholine receptors; test: inhibition of specific binding of ^3 H-Oxotremorine-M (^3 H-Oxo) in rat cortex; settings: rat cortical receptors; 1.0 nM radioligand, 25° C., 30 min
Source text: Furthermore, the pharmacological properties of the compounds of the invention can also be illustrated by determining their capability to inhibit the specific binding of ^3 H-Oxotremorine-M (^3 H-Oxo). Birdsdall N. J. M., Hulme E. C., and Burgen A. S. V. (1980). "The Character of Muscarinic Receptors in Different Regions of the Rat Brain". Proc. Roy. Soc. London (Series B) 207,1.
^3 H-Oxo labels muscarinic receptor in the CNS (with a preference for agonist domains of the receptors). Three different sites are labelled by ^3 H-Oxo. […] Using the present experimental conditions only the high and medium affinity sites are determined.
The inhibitory effects of compounds on ^3 H-Oxo binding reflects the affinity for muscarinic acetylcholine receptors.
All preparations are performed at 0-4° C. unless otherwise indicated. Fresh cortex (0.1-1 g) from male Wistar rats (150-250 g) is homogenized for 5-10 s in 10 ml 20 mM Hepes pH: 7.4, with an Ultra-Turrax homogenizer. The homogenizer is rinsed with 10 ml of buffer and the combined suspension centrifuged for 15 min. at 40,000×g. The pellet is washed three times with buffer. In each step the pellet is homogenized as before in 2×10 ml of buffer and centrifuged for 10 min. at 40,000×g.
The final pellet is homogenized in 20 mM Hepes pH: 7.4 (100 ml per g of original tissue) and used for binding assay. Aliquots of 0.5 ml is added 25 μl of test solution and 25 μl of ^3 H-Oxotremorine (1.0 nM, final concentration) mixed and incubated for 30 min. at 25° C. Non-specific binding is determined in triplicate using arecoline (1 μg/ml, final concentration) as the test substance. After incubation samples are added 5 ml of ice-cold buffer and poured directly onto Whatman GF/C glass fiber filters under suction and immediately washed 2 times with 5 ml of ice-cold buffer. The amount of radioactivity on the filters are determined by conventional liquid scintillation counting. Specific binding is total binding minus non specific binding.
Test substances are dissolved in 10 ml water (if necessary heated on a steam-bath for less than 5 min.) at a concentration of 2.2 mg/ml. 25-75% inhibition of specific binding must be obtained before calculation of IC50. The test value will be given as IC50 (the concentration (nM) of the test substance which inhibits the specific binding of ^3 H-Oxo by 50%).
IC50 =(applied test substance concentration)×(Cx /Co
where Co is specific binding in control assays and Cx is the specific binding in the test assay. (The calculations assume normal mass-action kinetics).
Table I illustrates the affinity of the compounds of the present invention for nicotinic and muscarinic receptors as determined by ^3 H-MCC and ^3 H-Oxo binding to rat cortical receptors. […]

[3] = molecular target: muscarinic acetylcholine receptors; settings: read-out: affinity of site labelled by ^3 H-Oxo, cited from earlier work
cognitive function = settings: age related; cited from earlier work
attention and memory [4] = settings: healthy humans; cited from earlier work
attention and memory [5] = settings: Alzheimer's disease patients; cited from earlier work
substantia nigra = settings: chronic nicotine; lesioning; cited from earlier work
Tourette's syndrome = settings: in vivo; cited from earlier work
dopamine release = settings: nucleus accumbens compared with striatum; cited from earlier work
prefrontal neurons = settings: cited from earlier work
dopaminergic effects = settings: various behavioral models; cited from earlier work

Oxo/MCC Ratio [1]	IC50 [1] [nM]	IC50 [2] [nM]	SMILES	also measured
19	230	4400	CNc1oncc1C1=CCCN(C)C1.O=C(O)C(=O)O [Compound 3, 3-(5-methylamino-4-isoxazolyl)-1,2,5,6-tetrahydro-1-methylpyridine oxalate]	–
23	62	1400	CCNc1oncc1C1=CCCN(C)C1.O=C(O)C(=O)O [Compound 5, 3-(5-ethylamino-4-isoxazolyl)-1,2,5,6-tetrahydro-1-methylpyridine oxalate]	–
130	40	5200	CCCNc1oncc1C1=CCCN(C)C1.O=C(O)C(=O)O [Compound 7, 3-(5-Propylamino-4-isoxazolyl)-1,2,5,6-tetrahydro-1-methylpyridine oxalate]	–
47	85	4000	CN1CCC=C(c2cnoc2NCc2ccccc2)C1.O=C(O)C(=O)O [Compound 14, 3-(5-Benzylamino-4-isoxazolyl)-1,2,5,6-tetrahydro-1-methylpyridine oxalate]	–

The remaining lines, values behind:

SMILES	Oxo/MCC Ratio [1]	IC50 [1] [nM]	IC50 [2] [nM]	also measured
C[N+](C)(C)CC#CCN1CCCC1=O [^3 H-Oxo, ^3 H-Oxotremorine-M]	–	–	–	Kd ([3]; high affinity site): 1.8 nM; Kd ([3]; medium affinity site): 20 nM; Kd ([3]; third (lowest affinity) site, not determined under present conditions): 3000 nM
CNC1(C)C2CCC(C2)C1(C)C (centres unmarked) [mecamylamine]	–	–	–	cognitive impairment (cognitive function): cause cognitive impairment in an age related way
CN1CCCC1c1cccnc1 (centres unmarked) [nicotine]	–	–	–	attention and memory (attention and memory [4]): improved attention and memory in healthy humans; attention and memory (attention and memory [5]): improved attention and memory; protection against cell loss in the substantia nigra (substantia nigra): may protect against cell loss in the substantia nigra; effects in Tourette's syndrome (Tourette's syndrome): beneficial effects in Tourette's syndrome; stimulation of dopamine release (dopamine release): stimulates dopamine release in the nucleus accumbens more potently than in striatum; reversal of inactivation of prefrontal neurons (prefrontal neurons): nicotinic reversal of inactivation of prefrontal neurons; potentiation of dopaminergic effects (dopaminergic effects): potentiate dopaminergic effects in various behavioral models

Source: US5994373A, “Substituted azacyclic compounds” (Novo Nordisk A/S Novo Alle DK 2880, priority 1995, dated 1999)
